The IC50 is the point on the concentration scale where inhibition reaches its midpoint. A lower IC50 goes with greater potency. As usually defined, the melting point is the temperature, or range, at which the solid turns liquid.

Structures are written as SMILES.

Results on 18 compounds are retold here after publication PMC6150310, “Synthesis and Structure–Activity Relationships of 4-Morpholino-7,8-Dihydro-5H-Thiopyrano[4,3-d]pyrimidine Derivatives Bearing Pyrazoline Scaffold” (Molecules : A Journal of Synthetic Chemistry and Natural …, 2017).

Data set [1] deals with MCF-7 cell line. Put plainly: MTT cytotoxicity assay, MCF-7. The data set is classed as cell-based. Particulars: Homo sapiens, MCF7, 72 h, average of two determinations, NA = No Activity. As to the method:
(§1) Taking GDC-0941 as the reference compound, the target compounds (7a–l and 8a–l) were evaluated for the cytotoxicity against four cancer cell lines A549, PC-3, MCF-7, and HepG2 by 3-(4,5-dimethylthiazolyl-2)-2,5-diphenyltetrazolium bromide (MTT) cell proliferation assay. In order to confirm the types of target compound, selective or mixed-type inhibitors, the selected compound, 8d, was measured for its PI3Kα kinase inhibitory activity together with reference compounds GDC-0941 and PI103 via the Kinase-Glo® Luminescent […] assay. The results expressed as inhibition rates or IC50 values are summarized in Table 1 and Table 2, where the values are the average of at least two independent experiments.
(§2) The in vitro cytotoxic activities of Compounds 7a–l and 8a–l were evaluated with A549, PC-3, HepG2, and MCF-7 cell lines by the standard MTT assay, with GDC-0941 as a positive control. The cancer cell lines were cultured in minimum essential medium (MEM) supplement with 10% fetal bovine serum (FBS). Approximately, 4 × 10^3 cells, suspended in MEM medium, were plated onto each well of a 96-well plate and incubated in 5% CO2 at 37 °C for 24 h. The test compounds at the indicated final concentrations were added to the culture medium, and cell cultures continued for 72 h. Fresh MTT was added to each well at a terminal concentration of […] and incubated with cells at 37 °C for 4 h. The formazan crystals were dissolved in 100 µL of DMSO in each well, and the absorbency at 492 nm (for absorbance of MTT formazan) and 630 nm (for the reference wavelength) was measured with an enzyme linked immunosorbent assay (ELISA) reader (MR-96A Mindray Elisa Microplate Reader, Guangzhou, China). All compounds were tested three times in each of the cell lines. The results expressed as inhibition rates or IC50 were the averages of two determinations and calculated using the Bacus Laboratories Inc. Slide Scanner (Bliss) software (the Bacus Laboratories Inc. Slide Scanner (BLISS) system, Lombard, IL, USA).

Data set [2] relates to A549 cell line. In words: MTT cytotoxicity assay, A549. Type of data set: cell-based. Particulars: Homo sapiens, A549, 72 h, average of two determinations, NA = No Activity. As to the method:
as §1, §2
A general note: Tetrazolium assays rely on reduction of a dye to a coloured formazan, in cell work by metabolically active cells.

Data set [3] has as its system HepG2 cell line. Put plainly: MTT cytotoxicity assay, HepG2. The data set is classed as cell-based. As to conditions: Homo sapiens, HepG2, 72 h, average of two determinations, NA = No Activity. As to the method:
as §1, §2

Data set [4] concerns PC-3 cell line. In words: MTT cytotoxicity assay, PC-3. As to conditions: Homo sapiens, PC-3, 72 h, average of two determinations, NA = No Activity. Type of data set: cell-based. As to the method:
as §1, §2

In the case of `c1ccc(C2=NN(c3nc4c(c(N5CCOCC5)n3)CSCC4)[C@@H](c3ccccc3)C2)cc1` [Compound 7a, (R)-4-(2-(3,5-Diphenyl-4,5-dihydro-1H-pyrazol-1-yl)-7,8-dihydro-5H-thiopyrano[4,3-d]pyrimidin-4-yl)morpholine], the melting point lay in the range of 139 to 142 °C. Also, the midpoint of inhibition in data set [1], the IC50, lay at 21.7 ± 0.78 µM. Also, the IC50 in data set [2] stood at 21.7 ± 0.76 µM. The same compound returned an IC50 in data set [3] of 20.3 ± 1.15 µM. This compound had a half-maximal inhibitory concentration (IC50) in data set [4] of 28.8 ± 2.4 µM.

In the case of `O=S1(=O)CCc2nc(N3N=C(c4ccc(F)cc4)C[C@@H]3c3ccc(Br)cc3)nc(N3CCOCC3)c2C1` (racemic) [Compound 8j, (R)-2-(5-(4-Bromophenyl)-3-(4-fluorophenyl)-4,5-dihydro-1H-pyrazol-1-yl)-4-morpholino-7,8-dihydro-5H-thiopyrano[4,3-d]pyrimidine 6,6-dioxide], the half-maximal inhibitory concentration (IC50) stood at 46.6 ± 0.89 µM in data set [1], 29.7 ± 0.32 µM in data set [2], 27.8 ± 0.64 µM in data set [3] and 31.9 ± 0.92 µM in data set [4].

Compound `Fc1ccc(C2=NN(c3nc4c(c(N5CCOCC5)n3)CSCC4)[C@@H](c3ccc(F)cc3)C2)cc1` [Compound 7g, (R)-4-(2-(3,5-Bis(4-fluorophenyl)-4,5-dihydro-1H-pyrazol-1-yl)-7,8-dihydro-5H-thiopyrano[4,3-d]pyrimidin-4-yl)morpholine] returned a melting point of 144 to 146 °C. Moreover, in data set [1], the IC50 worked out at 26.4 ± 0.37 µM. Also, half-maximal inhibition in data set [2] (IC50) was put at 16.9 ± 0.66 µM. Also, in data set [3], the IC50 turned out to be 20.3 ± 0.37 µM. The compound further gave a 50% inhibitory concentration (IC50) in data set [4] of 15.2 ± 1.54 µM.

Compound `O=S1(=O)CCc2nc(N3N=C(c4ccccc4)C[C@@H]3c3ccc(Br)cc3)nc(N3CCOCC3)c2C1` [Compound 8k, (R)-2-(5-(4-Bromophenyl)-3-phenyl-4,5-dihydro-1H-pyrazol-1-yl)-4-morpholino-7,8-dihydro-5H-thiopyrano[4,3-d]pyrimidine 6,6-dioxide] showed a melting point of 163 to 167 °C. In addition, in data set [1], the IC50 was determined as 32.6 ± 0.49 µM. The compound further showed an IC50 in data set [2] of 35 ± 0.47 µM. The IC50 in data set [3] came to 35.49 ± 0.33 µM. The IC50 in data set [4] was determined as 33.5 ± 1.67 µM.

Turning to `Cc1ccc(C2=NN(c3nc4c(c(N5CCOCC5)n3)CSCC4)[C@@H](c3ccc(Br)cc3)C2)cc1` (racemic) [Compound 7i, (R)-4-(2-(5-(4-Bromophenyl)-3-(p-tolyl)-4,5-dihydro-1H-pyrazol-1-yl)-7,8-dihydro-5H-thiopyrano[4,3-d]pyrimidin-4-yl)morpholine], the IC50 in data set [2] amounted to 16.4 ± 0.43 µM; in data set [4], 25.4 ± 0.74 µM.

In the case of `Brc1ccc([C@H]2CC(c3ccccc3)=NN2c2nc3c(c(N4CCOCC4)n2)CSCC3)cc1` [Compound 7k, (R)-4-(2-(5-(4-Bromophenyl)-3-phenyl-4,5-dihydro-1H-pyrazol-1-yl)-7,8-dihydro-5H-thiopyrano[4,3-d]pyrimidin-4-yl)morpholine], the melting point lay within 167 to 168 °C. Moreover, the IC50 in data set [1] came out at 35.7 ± 0.74 µM. This compound also showed an IC50 in data set [2] of 31.2 ± 0.59 µM. Further, in data set [3], the midpoint of inhibition, the IC50, lay at 32.7 ± 0.36 µM. In data set [4], this compound displayed an IC50 of 17.8 ± 0.55 µM.

Take `O=S1(=O)CCc2nc(N3N=C(c4ccccc4)C[C@@H]3c3ccc(Cl)c(Cl)c3)nc(N3CCOCC3)c2C1` [Compound 8e, (R)-2-(5-(3,4-Dichlorophenyl)-3-phenyl-4,5-dihydro-1H-pyrazol-1-yl)-4-morpholino-7,8-dihydro-5H-thiopyrano[4,3-d]pyrimidine 6,6-dioxide]: the IC50 in data set [1] was determined as 35.3 ± 0.49 µM.

On to `COc1ccc(C2=NN(c3nc4c(c(N5CCOCC5)n3)CS(=O)(=O)CC4)[C@@H](c3ccc(F)cc3)C2)cc1` [Compound 8h, (R)-2-(5-(4-Fluorophenyl)-3-(4-methoxyphenyl)-4,5-dihydro-1H-pyrazol-1-yl)-4-morpholino-7,8-dihydro-5H-thiopyrano[4,3-d]pyrimidine 6,6-dioxide], for which the melting point fell in the range of 140 to 142 °C. The compound also had an IC50 in data set [1] of 33.9 ± 0.45 µM. Moreover, the IC50 in data set [2] is 35 ± 0.74 µM. Also, the IC50 in data set [3] is 32.9 ± 2.82 µM. This compound also displayed an IC50 in data set [4] of 26.6 ± 0.33 µM.

`Clc1ccc([C@H]2CC(c3ccc(Br)cc3)=NN2c2nc3c(c(N4CCOCC4)n2)CSCC3)cc1Cl` [Compound 7c, (R)-4-(2-(3-(4-Bromophenyl)-5-(3,4-dichlorophenyl)-4,5-dihydro-1H-pyrazol-1-yl)-7,8-dihydro-5H-thiopyrano[4,3-d]pyrimidin-4-yl)morpholine]: the melting point was in the range of 185 to 186 °C. The compound further gave an IC50 in data set [1] of 22.98 ± 0.19 µM. This compound also displayed a 50% inhibitory concentration (IC50) in data set [2] of 13 ± 0.42 µM. In addition, the 50% inhibitory concentration (IC50) in data set [3] came to 15.36 ± 0.03 µM. For the same compound, the midpoint of inhibition in data set [4], the IC50, lay at 12.9 ± 1.56 µM.

Take `Cc1ccc(C2=NN(c3nc4c(c(N5CCOCC5)n3)CS(=O)(=O)CC4)[C@@H](c3ccc(Cl)c(Cl)c3)C2)cc1` [Compound 8b, (R)-2-(5-(3,4-Dichlorophenyl)-3-(p-tolyl)-4,5-dihydro-1H-pyrazol-1-yl)-4-morpholino-7,8-dihydro-5H-thiopyrano[4,3-d]pyrimidine 6,6-dioxide]: the melting point is 225 to 226 °C. The IC50 in data set [1] is 42.46 ± 0.03 µM. This compound also displayed a half-inhibitory concentration (IC50) in data set [2] of 35.6 ± 1.47 µM. This compound also came in with an IC50 in data set [4] of 17.8 ± 1.18 µM.

`COc1ccc(C2=NN(c3nc4c(c(N5CCOCC5)n3)CSCC4)[C@@H](c3ccccc3)C2)cc1` [Compound 7l, (R)-4-(2-(3-(4-Methoxyphenyl)-5-phenyl-4,5-dihydro-1H-pyrazol-1-yl)-7,8-dihydro-5H-thiopyrano[4,3-d]pyrimidin-4-yl)morpholine] had a melting point of more than 300 °C. Also, the IC50 in data set [2] came out at 36.4 ± 0.62 µM. This compound returned an IC50 in data set [4] of 28.25 ± 0.14 µM.

For the compound `COc1ccc(C2=NN(c3nc4c(c(N5CCOCC5)n3)CS(=O)(=O)CC4)[C@@H](c3ccc(Cl)c(Cl)c3)C2)cc1` [Compound 8f, (R)-2-(5-(3,4-Dichlorophenyl)-3-(4-methoxyphenyl)-4,5-dihydro-1H-pyrazol-1-yl)-4-morpholino-7,8-dihydro-5H-thiopyrano[4,3-d]pyrimidine 6,6-dioxide], the IC50 in data set [3] turned out to be 35.01 ± 0.18 µM; in data set [4], 38.65 ± 0.18 µM.

As for `Clc1ccc([C@H]2CC(c3ccccc3)=NN2c2nc3c(c(N4CCOCC4)n2)CSCC3)cc1Cl` (racemic) [Compound 7e, (R)-4-(2-(5-(3,4-Dichlorophenyl)-3-phenyl-4,5-dihydro-1H-pyrazol-1-yl)-7,8-dihydro-5H-thiopyrano[4,3-d]pyrimidin-4-yl)morpholine], the IC50 in data set [1] was found to be 35.9 ± 0.71 µM; in data set [4] it was 37.8 ± 3.64 µM.

`COc1ccc(C2=NN(c3nc4c(c(N5CCOCC5)n3)CS(=O)(=O)CC4)[C@@H](c3ccccc3)C2)cc1` [Compound 8l, (R)-2-(3-(4-Methoxyphenyl)-5-phenyl-4,5-dihydro-1H-pyrazol-1-yl)-4-morpholino-7,8-dihydro-5H-thiopyrano[4,3-d]pyrimidine 6,6-dioxide] had a melting point of 109 to 114 °C. The compound further displayed an IC50 in data set [4] of 37.38 ± 0.23 µM.

In the case of `Cc1ccc(C2=NN(c3nc4c(c(N5CCOCC5)n3)CS(=O)(=O)CC4)[C@@H](c3ccc(Br)cc3)C2)cc1` (racemic) [Compound 8i, (R)-2-(5-(4-Bromophenyl)-3-(p-tolyl)-4,5-dihydro-1H-pyrazol-1-yl)-4-morpholino-7,8-dihydro-5H-thiopyrano[4,3-d]pyrimidine 6,6-dioxide], the values for the IC50 in data set [2], in data set [3] and in data set [4] were 28.1 ± 0.89 µM, 24.7 ± 0.74 µM and 31.89 ± 0.25 µM, respectively.

As to `O=S1(=O)CCc2nc(N3N=C(c4ccccc4)C[C@@H]3c3ccccc3)nc(N3CCOCC3)c2C1` [Compound 8a, (R)-2-(3,5-Diphenyl-4,5-dihydro-1H-pyrazol-1-yl)-4-morpholino-7,8-dihydro-5H-thiopyrano[4,3-d]pyrimidine 6,6-dioxide], the melting point fell in the range of 219 to 220 °C. Besides, the IC50 in data set [1] amounted to 41.2 ± 1.25 µM. This compound showed an IC50 in data set [2] of 27.6 ± 0.85 µM. In data set [3], the IC50 amounted to 32.7 ± 0.39 µM.

Take `Fc1ccc(C2=NN(c3nc4c(c(N5CCOCC5)n3)CSCC4)[C@@H](c3ccc(Br)cc3)C2)cc1` (racemic) [Compound 7j, (R)-4-(2-(5-(4-Bromophenyl)-3-(4-fluorophenyl)-4,5-dihydro-1H-pyrazol-1-yl)-7,8-dihydro-5H-thiopyrano[4,3-d]pyrimidin-4-yl)morpholine]: the IC50 in data set [1] came to 28.25 ± 0.14 µM; in data set [2], 19.2 ± 1.25 µM; in data set [3], 23.8 ± 0.55 µM; in data set [4], 14.8 ± 1.02 µM.

Take `CS(=O)(=O)N1CCN(Cc2cc3nc(-c4cccc5[nH]ncc45)nc(N4CCOCC4)c3s2)CC1` [GDC-0941, Pictilisib dimethanesulfonate, reference compound]: the IC50 in data set [1] was determined as 4.3 ± 0.84 µM; in data set [2], 6.99 ± 0.21 µM; in data set [3], 0.07 ± 0.03 µM; in data set [4], 0.2 ± 0.08 µM.
